Consider one substance from patent publication US20260118345A1, “METHOD OF EVALUATING INTERCELLULAR INTERACTIONS IN NEUROINFLAMMATION” (FUJIFILM Corporation, priority 2023, published 2026).

Experiment [1] concerns two-cell-type co-culture of neurons and astrocytes. Briefly: Neural activity by calcium imaging (BPM), two-dimensional two-cell-type co-culture of neurons and astrocytes. Format: cell-based, human. As to conditions: 24 hours after stimulation (TNF-α 7.5 ng/mL or LPS 100 ng/mL). On the procedure: Matrigel basement membrane matrix (Corning, 356234) diluted 120-fold with DMEM/F12 (Life technologies, 11320-033) was added to a 96-well plate at 65 μL/well and allowed to stand at 4° C. After 24 hours, the culture medium was replaced with a progenitor cell culture medium and used. Astrocyte precursor cells (XCell Science, XCS-AP-001-1V) were seeded in a 96-well plate at a density of 6×10^4 cells/well, cultured under the conditions of 37° C. and 5% CO2, after culture medium was replaced with the differentiation induction culture medium, further cultured for 5 days to differentiate into astrocytes. […] After centrifugation, the supernatant was removed, the cells were suspended in 1 mL of the co-culture medium, and the number of cells was counted. […] In addition, at 24 hours after the stimulation with LPS or TNF-α, the neural activity was evaluated by calcium imaging. […] After incubating for 1 hour under conditions of 37° C. and 5% CO2, the solution was replaced with a warmed (37° C.) recording solution, and the fluorescence was measured for 10 minutes with FDSS (registered trademark)/μcell (Hamamatsu Photonics K. K., C13299). The neural activity was evaluated by quantifying the number of peaks of calcium oscillation using Wave Checker Software (Hamamatsu Photonics K. K.).

In experiment [2] the test system is three-cell-type co-culture of neurons, astrocytes, and microglia. Briefly: Neural activity by calcium imaging (BPM), two-dimensional three-cell-type co-culture of neurons, astrocytes and microglia. As to conditions: 24 hours after stimulation (TNF-α 7.5 ng/mL or LPS 100 ng/mL). Format: cell-based, human. The procedure: Matrigel basement membrane matrix (Corning, 356234) diluted 120-fold with DMEM/F12 (Life technologies, 11320-033) was added to a 96-well plate at 65 μL/well and allowed to stand at 4° C. After 24 hours, the culture medium was replaced with a progenitor cell culture medium and used. Astrocyte precursor cells (XCell Science, XCS-AP-001-1V) were seeded in a 96-well plate at a density of 6×10^4 cells/well, cultured under the conditions of 37° C. and 5% CO2, after culture medium was replaced with the differentiation induction culture medium, further cultured for 5 days to differentiate into astrocytes. […] After centrifugation, the supernatant was removed, the cells were suspended in 1 mL of the co-culture medium, and the number of cells was counted. […] After centrifugation, the supernatant was removed, the cells were suspended in 1 mL of the co-culture medium, and the number of cells was counted. […] In addition, at 24 hours after the stimulation with LPS or TNF-α, the neural activity was evaluated by calcium imaging. […] After incubating for 1 hour under conditions of 37° C. and 5% CO2, the solution was replaced with a warmed (37° C.) recording solution, and the fluorescence was measured for 10 minutes with FDSS (registered trademark)/μcell (Hamamatsu Photonics K. K., C13299). […]

For lipopolysaccharide [LPS], the “BPM (the number of peaks of calcium oscillation per minute) as compared with the control” value in experiment [1] is “no change”; in experiment [2], “increase”.
